Measurements reported in patent publication US20020137929A1, “1 - (3-heterocyclylphenyl) isothiourea, -isourea, -guanidine and -amidine herbicidal agents” (Intellectual Property Department, BASF Aktiengesellschaft, priority 1998, published 2002).

Experiments:
[1] = tested on: ECHORC (Watergrass (Calif.)); test: Preemergence weed control under flooded paddy conditions; format: in vivo, Echinochloa oryzoides; details: rated 3-4 weeks after treatment
Summary of the method: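 Visual injury scored 0-9 against control three to four weeks post-treatment, greenhouse-grown. Application: acetone/water (50/50) solutions dosed directly into flood water (1.5-3 cm over silt loam, planted top 0.5 cm), roughly 0.0313 to 0.500 kg/ha active ingredient.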

[2] = tested on: CASOB (Sicklepod); test: Postemergence herbicidal evaluation; format: in vivo, Cassia obtusifolia; details: postemergence
Summary of the method: (§1)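 Each compound, dispersed in an acetone/water mix (50/50) carrying 0.5% TWEEN 20, is nozzle-sprayed at 40 psi on approximately two-week-old seedlings at about 0.0156–0.500 kg/ha. Plants are assessed 4–5 weeks afterward on a 0–9 scale relative to control; duplicate tests are averaged.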

[3] = tested on: ABUTH (Velvetleaf); test: Postemergence herbicidal evaluation; format: in vivo, Abutilon theophrasti; details: postemergence
Summary of the method: as §1

[4] = tested on: TRZAWR (Wheat, Winter, cv Riband); test: Preemergence herbicidal evaluation; format: in vivo, Triticum aestivum; details: rated 4-5 weeks after treatment
Summary of the method: (§2)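 Scores use a 0–9 visual scale covering stand, vigor, malformation, size and chlorosis relative to controls, rated four to five weeks after treatment. Before emergence, soil-planted seeds were sprayed with compound in aqueous acetone at roughly 0.0156–0.500 kg/ha and held in the greenhouse.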

[5] = tested on: SAGPY (Arrowhead (Pygmaea)); test: Preemergence weed control under flooded paddy conditions; format: in vivo, Sagittaria pygmaea; details: rated 3-4 weeks after treatment
Summary of the method: (§3)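 Using flooded silt loam (water 1.5 to 3 cm deep), seeds sown in the top 0.5 cm were exposed preemergence to compound pipetted into the flood at about 0.0313 to 0.500 kg/ha. Effects were scored 0-9 by eye three to four weeks later.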

[6] = tested on: ECHCG (Barnyardgrass); test: Postemergence herbicidal evaluation; format: in vivo, Echinochloa crus-galli; details: postemergence
Summary of the method: as §1

[7] = tested on: ORYSAT (Rice, Tebonnet); test: Preemergence herbicidal evaluation; format: in vivo, Oryza sativa, (L.) Tebonnet; details: rated 4-5 weeks after treatment
Summary of the method: as §2

[8] = tested on: ZEAMX (Corn, Field); test: Postemergence herbicidal evaluation; format: in vivo, Zea mays; details: postemergence
Summary of the method: as §1

[9] = tested on: TRZAWR (Wheat, Winter, cv Riband); test: Postemergence herbicidal evaluation; format: in vivo, Triticum aestivum; details: postemergence
Summary of the method: as §1

[10] = tested on: CYPSE (Flatsedge); test: Preemergence weed control under flooded paddy conditions; format: in vivo, Cyperus serotinus; details: rated 3-4 weeks after treatment
Summary of the method: as §3

[11] = tested on: GLXMAW (Soybean, Williams); test: Preemergence herbicidal evaluation; format: in vivo, Glycine max, (L.) Merr. cv Williams; details: rated 4-5 weeks after treatment
Summary of the method: as §2

[12] = tested on: MOOVA (Monochoria); test: Preemergence weed control under flooded paddy conditions; format: in vivo, Monochoria vaginalis; details: rated 3-4 weeks after treatment
Summary of the method: as §3

`C=CCN1C(=O)C(CC(=O)NS(=O)(=O)C(C)C)SC1=Nc1cc(-n2c(=O)cc(C(F)(F)F)n(C)c2=O)c(F)cc1Cl` (stereo not shown) [Compound 118, 3-Allyl-2-{{2-chloro-5-[3,6-dihydro-3-methyl-2,6-dioxo-4-(trifluoromethyl)-1(2H)-pyrimidinyl]-4-fluorophenyl}imino}-N-(isopropylsulfonyl)-4-oxo-5-thiazolidineacetamide] was tested, and the “herbicidal effect rating, ECHORC” value ([1]; 0.0313 kg/ha) was 0.0, the “herbicidal effect rating, ECHORC” value ([1]; 0.0625 kg/ha) was 0.0 and the “herbicidal effect rating, ECHORC” value ([1]; 0.1250 kg/ha) was 4.0. For the same compound, the “herbicidal effect rating, ECHORC” value ([1]; 0.2500 kg/ha) was 6.0, the “herbicidal rating CASOB” value ([2]; rate 0.0158 kg/ha) was 0.0 and the “herbicidal rating CASOB” value ([2]; rate 0.0315 kg/ha) was 0.0. For the same compound, the “herbicidal rating CASOB” value ([2]; rate 0.0630 kg/ha) was 0.0, the “herbicidal rating ABUTH” value ([3]; rate 0.0158 kg/ha) was 0.0 and the “herbicidal rating ABUTH” value ([3]; rate 0.0315 kg/ha) was 4.0. The “herbicidal rating ABUTH” value ([3]; rate 0.0630 kg/ha) was 9.0, the “Preemergence herbicidal rating TRZAWR” value ([4]; rate 0.0625 kg/ha) was 0.0 and the “Preemergence herbicidal rating TRZAWR” value ([4]; rate 0.1250 kg/ha) was 0.0. The “Preemergence herbicidal rating TRZAWR” value ([4]; rate 0.2500 kg/ha) was 0.0, the “herbicidal effect rating, SAGPY” value ([5]; 0.0313 kg/ha) was 0.0 and the “herbicidal effect rating, SAGPY” value ([5]; 0.0625 kg/ha) was 0.0. For the same compound, the “herbicidal effect rating, SAGPY” value ([5]; 0.1250 kg/ha) was 3.0, the “herbicidal effect rating, SAGPY” value ([5]; 0.2500 kg/ha) was 3.0 and the “herbicidal rating ECHCG” value ([6]; rate 0.0158 kg/ha) was 0.0. The “herbicidal rating ECHCG” value ([6]; rate 0.0315 kg/ha) was 1.0, the “herbicidal rating ECHCG” value ([6]; rate 0.0630 kg/ha) was 1.0 and the “Preemergence herbicidal rating ORYSAT” value ([7]; rate 0.0625 kg/ha) was 0.0. The “Preemergence herbicidal rating ORYSAT” value ([7]; rate 0.1250 kg/ha) was 0.0, the “Preemergence herbicidal rating ORYSAT” value ([7]; rate 0.2500 kg/ha) was 0.0 and the “herbicidal rating ZEAMX” value ([8]; rate 0.0158 kg/ha) was 3.5. For the same compound, the “herbicidal rating ZEAMX” value ([8]; rate 0.0315 kg/ha) was 4.0, the “herbicidal rating ZEAMX” value ([8]; rate 0.0630 kg/ha) was 4.5 and the “herbicidal rating TRZAWR” value ([9]; rate 0.0158 kg/ha) was 2.0. For the same compound, the “herbicidal rating TRZAWR” value ([9]; rate 0.0315 kg/ha) was 2.0, the “herbicidal rating TRZAWR” value ([9]; rate 0.0630 kg/ha) was 2.0 and the “herbicidal effect rating, CYPSE” value ([10]; 0.0313 kg/ha) was 0.0. The “herbicidal effect rating, CYPSE” value ([10]; 0.0625 kg/ha) was 0.0, the “herbicidal effect rating, CYPSE” value ([10]; 0.1250 kg/ha) was 0.0 and the “herbicidal effect rating, CYPSE” value ([10]; 0.2500 kg/ha) was 0.0. The “Preemergence herbicidal rating GLXMAW” value ([11]; rate 0.0625 kg/ha) was 1.0, the “Preemergence herbicidal rating GLXMAW” value ([11]; rate 0.1250 kg/ha) was 0.0 and the “Preemergence herbicidal rating GLXMAW” value ([11]; rate 0.2500 kg/ha) was 3.0. The “herbicidal effect rating, MOOVA” value ([12]; 0.0313 kg/ha) was 4.0, the “herbicidal effect rating, MOOVA” value ([12]; 0.0625 kg/ha) was 4.0 and the “herbicidal effect rating, MOOVA” value ([12]; 0.1250 kg/ha) was 6.0. For the same compound, the “herbicidal effect rating, MOOVA” value ([12]; 0.2500 kg/ha) was 7.0.
